Patent US20240294523A1, “HETEROCYCLIC LACTAM COMPOUND, AND PREPARATION METHOD THEREFOR AND PHARMACEUTICAL USE THEREOF” (Genfleet Therapeutics (Shanghai) Inc., priority 2021, published 2024)

The compounds below were run on U937 cells (assay: Inhibition of TNF-α-induced programmed necrosis of U937 cells (CellTiter-Glo)). Conditions: U-937, human TNF-α + Q-VD-Oph, 48 hours.
Format: cell-based
Procedure: The U937 cell line used in the following test examples was from ATCC, number: CRL-1593.2, batch number: 63479999, culture medium: RPMI-1640+10% FBS.
(§1) The reagents used, suppliers and product numbers of the reagents were as follows: RPMI-1640, Gibco, 11875-093; FBS, Gibco, 10099-141; Trypsin-EDTA, Gibco, 25200-072; PS, Gibco, 15140-122; CellTiter Glo , Progema, G7573; DMSO, VWR AMRESCO, 0231-500ML; TNF-α protein (human, recombinant), Peprotech, 300-01A; Q-VD-Oph, MCE, HY-12305; V-shaped bottom plate, Corning, 3894; 384-well low-flange white flat-bottom microplate, Corning, 3570; RIPK1, Eurofins, 16-022; MOPS, BDH, 441644J; EDTA, Sigma, E5134; Myelin basic protein, Sigma, M1891-25.00 MG; Magnesium acetate, Merck, DU008026; ATP (non-radioactive label), Sigma, A-7699; ATP (radioactive label), Hartmann Analytic, DU008054; Phosphoric acid, Metlab, DU003000; Z-VAD: Shanghai Yuang Chemical Industry, YA02401.
The compounds to be tested were dissolved in DMSO and diluted with DMSO into a series of concentration gradients. 5000 U937 cells/well were seeded in a 384-well white plate. Compounds of corresponding concentrations were added to each well and mixed evenly with the cells. At the same time, human TNF-a and Q-VD-Oph were added to induce programmed necrosis of the cells. The cells were placed at 37° C., 5% CO2 incubator for 48 hours. CellTiter-Glo reagent was used for detection, and the chemiluminescence reading was detected using a microplate reader after sufficient lysis reaction. The test results were calculated using the formula SR (%)=(RLU compound−RLU blank)/(RLU high control−RLU blank)×100%. The survival rate and the final concentration of the corresponding compound were drawn into a curve and fitted using four parameters. Inhibitory IC50 on TNF-α-induced cell necrosis of the compounds were calculated.

Compound | IC50 [nM]
O=C1c2nn(Cc3ccccc3Cl)c(Cl)c2CCN1CC(F)F [Compound Z8, 3-chloro-2-(2-chlorobenzyl)-6-(2,2-difluoroethyl)-2,4,5,6-tetrahydro-7H-pyrazolo[3,4-c]pyridin-7-one] | 253
O=C1c2nn(Cc3cc(F)ccc3F)c(Cl)c2CCN1CC(F)F [Compound Z5, 3-chloro-2-(2,5-difluorobenzyl)-6-(2,2-difluoroethyl)-2,4,5,6-tetrahydro-7H-pyrazolo[3,4-c]pyridin-7-one] | 205
O=C1c2nn(Cc3c(F)cccc3F)c(Cl)c2CCN1CC(F)F [Compound Z3, 3-chloro-2-(2,6-difluorobenzyl)-6-(2,2-difluoroethyl)-2,4,5,6-tetrahydro-7H-pyrazolo[3,4-c]pyridin-7-one] | 129
CC(C(F)F)N1CCc2c(nn(Cc3ccc(F)cc3F)c2Cl)C1=O (stereo not shown) [Compound Z18, 3-chloro-2-(2,4-difluorobenzyl)-6-(1,1-difluoropropan-2-yl)-2,4,5,6-tetrahydro-7H-pyrazolo[3,4-c]pyridin-7-one] | 194
CC(C(F)F)N1CCc2c(nn(Cc3c(F)cccc3F)c2Br)C1=O (stereo not shown) [Compound Z24, 3-bromo-2-(2,6-difluorobenzyl)-6-(1,1-difluoropropan-2-yl)-2,4,5,6-tetrahydro-7H-pyrazolo[3,4-c]pyridin-7-one] | 48.9
O=C1c2nn(Cc3c(F)cccc3F)c(Cl)c2CCN1CC1(F)CC1 [Compound Z11, 3-chloro-2-(2,6-difluorobenzyl)-6-((1-fluorocyclopropyl)methyl)-2,4,5,6-tetrahydro-7H-pyrazolo[3,4-c]pyridin-7-one] | 1600
CC1(C)CC(N2CCc3c(nn(Cc4c(F)cccc4F)c3Cl)C2=O)CCO1 (stereo not shown) [Compound Z25, 3-chloro-2-(2,6-difluorobenzyl)-6-(2,2-dimethyltetrahydro-2H-pyran-4-yl)-2,4,5,6-tetrahydro-7H-pyrazolo[3,4-c]pyridin-7-one] | 464
C[C@H](C(F)F)N1CCc2c(nn(Cc3c(F)cccc3F)c2Br)C1=O (single isomer, unassigned) [Compound Z24-1] | 119
O=C1c2nn(Cc3ccccc3F)c(Cl)c2CCN1CC(F)F [Compound Z2, 3-chloro-6-(2,2-difluoroethyl)-2-(2-fluorobenzyl)-2,4,5,6-tetrahydro-7H-pyrazolo[3,4-c]pyridin-7-one] | 279
CCC(C(F)F)N1CCc2c(nn(Cc3c(F)cccc3F)c2Cl)C1=O (stereo not shown) [Compound Z15, 3-chloro-2-(2,6-difluorobenzyl)-6-(1,1-difluorobutan-2-yl)-2,4,5,6-tetrahydro-7H-pyrazolo[3,4-c]pyridin-7-one] | 127
C[C@@H](C(F)F)N1CCc2c(nn(Cc3c(F)cccc3F)c2Cl)C1=O (single isomer, unassigned) [Compound Z9-1] | 256
CC(C(F)F)N1CCc2c(nn(Cc3cc(F)cc(F)c3)c2Cl)C1=O (stereo not shown) [Compound Z14, 3-chloro-2-(3,5-difluorobenzyl)-6-(1,1-difluoropropan-2-yl)-2,4,5,6-tetrahydro-7H-pyrazolo[3,4-c]pyridin-7-one] | 982
CC(COc1ccc(C#N)cn1)N1CCc2c(nn(Cc3ccccc3)c2Cl)C1=O (stereo not shown) [Compound Z16, 6-(2-(2-benzyl-3-chloro-7-oxo-2,4,5,7-tetrahydro-6H-pyrazolo[3,4-c]pyridine-6-yl)propoxy)nicotinonitrile] | 2950
CC(C(F)F)N1CCc2c(nn(Cc3c(F)cc(F)cc3F)c2Cl)C1=O (stereo not shown) [Compound Z22, 3-chloro-6-(1,1-difluoropropan-2-yl)-2-(2,4,6-trifluorobenzyl)-2,4,5,6-tetrahydro-7H-pyrazolo[3,4-c]pyridin-7-one] | 222
O=C1c2nn(Cc3c(F)cccc3F)c(Cl)c2CCN1C(C(F)F)C1CC1 (stereo not shown) [Compound Z13, 3-chloro-6-(1-cyclopropyl-2,2-difluoroethyl)-2-(2,6-difluorobenzyl)-2,4,5,6-tetrahydro-7H-pyrazolo[3,4-c]pyridin-7-one] | 120
O=C1c2nn(Cc3ccccc3)c(Cl)c2CCN1CC(F)F [Compound Z1, 2-benzyl-3-chloro-6-(2,2-difluoroethyl)-2,4,5,6-tetrahydro-7H-pyrazolo[3,4-c]pyridine-7-one] | 461
CC(C(F)F)N1CCc2c(C(F)(F)F)nn(Cc3c(F)cccc3F)c2C1=O (stereo not shown) [Compound Z17, 1-(2,6-difluorobenzyl)-6-(1,1-difluoropropan-2-yl)-3-(trifluoromethyl)-1,4,5,6-tetrahydro-7H-pyrazolo[3,4-c]pyridin-7-one] | 1820
O=C1c2nn(Cc3c(F)ccc(F)c3F)c(Cl)c2CCN1CC(F)F [Compound Z6, 3-chloro-6-(2,2-difluoroethyl)-2-(2,3,6-trifluorobenzyl)-2,4,5,6-tetrahydro-7H-pyrazolo[3,4-c]pyridin-7-one] | 482
CC(C(F)F)N1CCc2c(nn(Cc3cc(F)c(F)cc3F)c2Cl)C1=O (stereo not shown) [Compound Z21, 3-chloro-6-(1,1-difluoropropan-2-yl)-2-(2,4,5-trifluorobenzyl)-2,4,5,6-tetrahydro-7H-pyrazolo[3,4-c]pyridin-7-one] | 534
CC(=O)N1CCc2c(nn(Cc3c(F)cccc3F)c2Cl)C1=O [Compound Z26, 6-acetyl-3-chloro-2-(2,6-difluorobenzyl)-2,4,5,6-tetrahydro-7H-pyrazolo[3,4-c]pyridin-7-one] | 361
N#CCC1(N2CCc3c(nn(Cc4c(F)cccc4F)c3Cl)C2=O)CC1 [Compound Z7, 2-(1-(3-chloro-2-(2,6-difluorobenzyl)-7-oxo-2,4,5,7-tetrahydro-6H-pyrazolo[3,4-c]pyridin-6-yl)cyclopropyl)acetonitrile] | 1830
CC(C(F)F)N1CCc2c(nn(Cc3ccccc3OC(F)(F)F)c2Cl)C1=O (stereo not shown) [Compound Z12, 3-chloro-6-(1,1-difluoropropan-2-yl)-2-(2-(trifluoromethoxy)benzyl)-2,4,5,6-tetrahydro-7H-pyrazolo[3,4-c]pyridin-7-one] | 1380
O=C1c2nn(Cc3c(F)cccc3F)c(Cl)c2CCN1C1CCOCC1 [Compound Z23, 3-chloro-2-(2,6-difluorobenzyl)-6-(tetrahydro-2H-pyran-4-yl)-2,4,5,6-tetrahydro-7H-pyrazolo[3,4-c]pyridin-7-one] | 311
CCC(=O)N1CCc2c(nn(Cc3c(F)cccc3F)c2Cl)C1=O [Compound Z20, 3-chloro-2-(2,6-difluorobenzyl)-6-propionyl-2,4,5,6-tetrahydro-7H-pyrazolo[3,4-c]pyridin-7-one] | 300
N#CCCN1CCc2c(nn(Cc3c(F)cccc3F)c2Cl)C1=O [Compound Z4, 3-(3-chloro-2-(2,6-difluorobenzyl)-7-oxo-2,4,5,7-tetrahydro-6H-pyrazolo[3,4-c]pyridine-6-yl)propionitrile] | 1360
CC(C(F)F)N1CCc2c(nn(Cc3ccccc3F)c2Cl)C1=O (stereo not shown) [Compound Z19, 3-chloro-6-(1,1-difluoropropan-2-yl)-2-(2-fluorobenzyl)-2,4,5,6-tetrahydro-7H-pyrazolo[3,4-c]pyridin-7-one] | 168
O=C1c2nn(Cc3c(F)cccc3F)c(Cl)c2CCN1C1(C(F)F)CC1 [Compound Z10, 3-chloro-2-(2,6-difluorobenzyl)-6-(1-(difluoromethyl)cyclopropyl)-2,4,5,6-tetrahydro-7H-pyrazolo[3,4-c]pyridin-7-one] | 676

These compounds were tested against RIPK1 (Homo sapiens (Human), UniProt Q13546) (assay: Inhibitory activity against RIPK1 enzyme (33P-ATP, MBP substrate)). Conditions: 36 nM RIPK1, 0.33 mg/ml MBP, 155 μM ATP, 2 hours, room temperature.
Format: biochemical
Procedure: as §1
The compound to be tested was dissolved in DMSO to prepare a 10 mM stock solution, diluted 3.16 times with DMSO into a series of concentration gradients, and then MOPS pH 7.0 buffer solution was used to dilute 50 times to prepare a working solution, and mixed well with 36 nM RIPK1 (final concentration), 0.33 mg/ml substrate MBP. Afterwards, 10 mM magnesium ions and 155 μM phosphorus 33 isotope-labeled ATP were added to react, The final concentration of DMSO was 2%. After the reaction was proceeded at room temperature for 2 hours, phosphoric acid was added to terminate. The final reaction system was processed and detected using a liquid scintillation counter. After the test results are subtracted from the blank control and compared with the reading value of the control group to convert to the activity percentage, which was plotted as a curve with the final concentration of the corresponding compound, and four-parameter fitting was used to obtain the IC50 of the compound that inhibits RIPK1 enzyme activity.

Chain of RIPK1 (Q13546 whole entry): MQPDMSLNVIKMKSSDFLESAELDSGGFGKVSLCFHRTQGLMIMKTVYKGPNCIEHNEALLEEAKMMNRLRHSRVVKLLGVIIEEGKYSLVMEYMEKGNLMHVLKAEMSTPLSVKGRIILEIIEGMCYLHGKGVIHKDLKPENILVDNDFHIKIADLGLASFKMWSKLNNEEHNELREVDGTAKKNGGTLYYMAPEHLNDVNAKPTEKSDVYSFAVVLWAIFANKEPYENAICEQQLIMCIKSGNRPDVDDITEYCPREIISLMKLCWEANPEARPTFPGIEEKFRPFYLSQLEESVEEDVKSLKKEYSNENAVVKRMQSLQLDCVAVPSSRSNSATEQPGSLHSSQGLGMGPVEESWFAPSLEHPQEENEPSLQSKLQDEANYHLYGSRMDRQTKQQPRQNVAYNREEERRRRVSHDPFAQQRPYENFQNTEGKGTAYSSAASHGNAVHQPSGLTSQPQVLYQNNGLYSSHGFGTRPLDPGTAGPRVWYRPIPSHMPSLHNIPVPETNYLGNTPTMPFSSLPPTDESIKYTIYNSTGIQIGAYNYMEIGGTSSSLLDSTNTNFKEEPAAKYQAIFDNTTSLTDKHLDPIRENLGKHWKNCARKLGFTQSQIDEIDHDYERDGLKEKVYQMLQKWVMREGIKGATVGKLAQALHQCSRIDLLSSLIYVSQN

IC50 [nM] | Compound
48 | O=C1c2nn(Cc3c(F)cccc3F)c(Cl)c2CCN1CC(F)F [Compound Z3, 3-chloro-2-(2,6-difluorobenzyl)-6-(2,2-difluoroethyl)-2,4,5,6-tetrahydro-7H-pyrazolo[3,4-c]pyridin-7-one]
30 | O=C1c2nn(Cc3ccccc3F)c(Cl)c2CCN1CC(F)F [Compound Z2, 3-chloro-6-(2,2-difluoroethyl)-2-(2-fluorobenzyl)-2,4,5,6-tetrahydro-7H-pyrazolo[3,4-c]pyridin-7-one]
65 | O=C1c2nn(Cc3ccccc3)c(Cl)c2CCN1CC(F)F [Compound Z1, 2-benzyl-3-chloro-6-(2,2-difluoroethyl)-2,4,5,6-tetrahydro-7H-pyrazolo[3,4-c]pyridine-7-one]
184 | O=C1c2nn(Cc3ccccc3)c(Cl)c2CCCN1CC(F)F [Compound Z42]
